# Results reported in ChEMBL document CHEMBL1201862, “PubChem BioAssay data set” (2004).
# “And” between values parts separate entries of the source, which are not always exact repeats. Equal entries are not always repeated. The source made the active and inactive calls.
# Columns and labels:
# Type in all cases: functional
# [1] = system: BJ; experiment: cytotoxicity toward Ras-transformed BJeLR fibroblasts, dose response, cell-based, alamar blue fluorescence, cherrypicked samples (AID 2631); conditions: Homo sapiens;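 further: confirmatory dose-response assay in RAS-dependent BJ fibroblasts engineered with TERT, LT and ST, with cytotoxicity read by fluorescence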
# [2] = target: T1, Replicative DNA helicase DnaB (Mycobacterium tuberculosis, UniProt P9WMR3); experiment: DnaB intein splicing inhibitors, dose response, biochemical, cell-free fluorescence (AID 449749)
# T1 sequence (P9WMR3 whole entry): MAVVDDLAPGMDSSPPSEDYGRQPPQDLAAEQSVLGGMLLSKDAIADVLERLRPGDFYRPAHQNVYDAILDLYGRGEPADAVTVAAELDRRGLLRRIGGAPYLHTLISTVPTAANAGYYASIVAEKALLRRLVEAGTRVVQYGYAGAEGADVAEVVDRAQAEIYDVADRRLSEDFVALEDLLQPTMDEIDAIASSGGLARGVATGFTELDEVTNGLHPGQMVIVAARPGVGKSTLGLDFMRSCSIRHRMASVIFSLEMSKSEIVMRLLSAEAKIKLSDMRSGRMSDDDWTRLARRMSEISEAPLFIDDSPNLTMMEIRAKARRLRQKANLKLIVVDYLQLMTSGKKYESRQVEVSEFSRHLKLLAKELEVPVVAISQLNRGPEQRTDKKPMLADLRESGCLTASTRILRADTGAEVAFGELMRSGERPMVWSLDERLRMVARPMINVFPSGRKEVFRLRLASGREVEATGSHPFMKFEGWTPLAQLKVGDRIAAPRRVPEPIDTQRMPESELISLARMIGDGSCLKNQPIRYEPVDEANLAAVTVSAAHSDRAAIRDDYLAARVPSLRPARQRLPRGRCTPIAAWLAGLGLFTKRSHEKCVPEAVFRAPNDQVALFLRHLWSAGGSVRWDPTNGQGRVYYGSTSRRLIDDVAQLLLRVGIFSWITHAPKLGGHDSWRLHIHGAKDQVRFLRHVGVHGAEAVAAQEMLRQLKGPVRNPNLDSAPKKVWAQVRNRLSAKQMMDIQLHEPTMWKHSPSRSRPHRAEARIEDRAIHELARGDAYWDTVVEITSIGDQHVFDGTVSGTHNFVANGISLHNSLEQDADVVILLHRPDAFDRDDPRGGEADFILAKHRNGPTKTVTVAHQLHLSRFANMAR
# [3] = target: T2, Sentrin-specific protease 7 (Homo sapiens, UniProt Q9BQF6);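 further: Luminescence-based dose-response confirmation of ultra-high-throughput screening hits, measuring inhibition of SENP7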
# T2 sequence (Q9BQF6 whole entry): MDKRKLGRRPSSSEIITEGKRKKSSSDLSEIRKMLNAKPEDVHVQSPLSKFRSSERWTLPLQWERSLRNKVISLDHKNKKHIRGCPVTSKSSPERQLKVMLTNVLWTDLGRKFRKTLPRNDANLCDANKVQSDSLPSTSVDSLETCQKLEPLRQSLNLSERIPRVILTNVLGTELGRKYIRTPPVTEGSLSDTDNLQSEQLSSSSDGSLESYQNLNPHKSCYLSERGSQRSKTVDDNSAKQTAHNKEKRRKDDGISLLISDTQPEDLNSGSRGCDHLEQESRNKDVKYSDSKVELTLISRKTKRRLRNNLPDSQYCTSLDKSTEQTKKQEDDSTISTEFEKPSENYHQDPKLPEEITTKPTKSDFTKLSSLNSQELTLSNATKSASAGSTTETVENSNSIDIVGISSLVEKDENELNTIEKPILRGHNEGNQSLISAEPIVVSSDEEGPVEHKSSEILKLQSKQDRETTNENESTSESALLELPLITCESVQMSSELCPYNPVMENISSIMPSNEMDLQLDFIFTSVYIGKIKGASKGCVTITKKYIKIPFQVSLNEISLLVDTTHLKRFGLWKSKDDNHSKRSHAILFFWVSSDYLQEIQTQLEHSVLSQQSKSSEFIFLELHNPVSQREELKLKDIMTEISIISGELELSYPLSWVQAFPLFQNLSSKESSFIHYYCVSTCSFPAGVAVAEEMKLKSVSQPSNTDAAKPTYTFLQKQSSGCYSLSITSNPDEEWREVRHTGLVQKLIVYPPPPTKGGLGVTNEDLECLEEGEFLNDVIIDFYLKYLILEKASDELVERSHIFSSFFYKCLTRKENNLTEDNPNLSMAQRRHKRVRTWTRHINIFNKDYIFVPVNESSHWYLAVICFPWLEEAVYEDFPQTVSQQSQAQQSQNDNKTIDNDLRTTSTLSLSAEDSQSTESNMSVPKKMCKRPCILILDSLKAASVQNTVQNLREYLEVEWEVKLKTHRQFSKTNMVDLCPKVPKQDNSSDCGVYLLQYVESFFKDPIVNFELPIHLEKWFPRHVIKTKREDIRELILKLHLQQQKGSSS
# [4] = target: Intestinal-type alkaline phosphatase (Mus musculus, UniProt P24822); experiment: PubChem AID 488785
# Chain of Intestinal-type alkaline phosphatase (P24822 whole entry): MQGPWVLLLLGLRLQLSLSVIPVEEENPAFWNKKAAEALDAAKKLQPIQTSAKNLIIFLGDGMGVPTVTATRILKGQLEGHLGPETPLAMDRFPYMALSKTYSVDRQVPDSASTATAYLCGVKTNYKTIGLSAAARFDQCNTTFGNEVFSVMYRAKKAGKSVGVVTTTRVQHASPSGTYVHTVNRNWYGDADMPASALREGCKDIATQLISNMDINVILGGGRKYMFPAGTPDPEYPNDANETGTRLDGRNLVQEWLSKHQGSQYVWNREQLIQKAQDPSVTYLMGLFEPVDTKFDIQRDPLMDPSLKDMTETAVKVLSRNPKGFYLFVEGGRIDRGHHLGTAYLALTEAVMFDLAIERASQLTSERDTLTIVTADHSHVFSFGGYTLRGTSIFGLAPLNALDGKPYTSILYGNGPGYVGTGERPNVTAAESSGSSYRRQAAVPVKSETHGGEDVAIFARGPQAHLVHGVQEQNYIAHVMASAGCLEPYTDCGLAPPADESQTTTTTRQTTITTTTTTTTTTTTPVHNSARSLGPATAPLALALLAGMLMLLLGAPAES
# [5] = target: T2, Sentrin-specific protease 7; experiment: SENP7 protease inhibitors, SAR follow-up, biochemical, luminescence (AID 504497)
smiles,measurement,setting,value
Cc1cc2nc3ccc(N(C)C)cc3[s+]c2cc1N [TOLONIUM CHLORIDE],EC50,[1],0.491 µM (inconclusive)
same,AC50,[2],77.1 µM (active)
CCCOc1cc2c(C#N)c(N3CCCC3)nc(N)c2c(N)n1,IC50,[3],4.45 µM (active)
Oc1ccc(/C=N/Nc2cc(N3CCCC3)nc(N3CCCC3)n2)cc1O,IC50,[4],1.51 µM (active)
same,IC50,[5],58.1 µM (active) and 39.7 µM (active)
